One data set concerns OVCAR-8 and ID8 cells. In words: Clonogenic assay. It counts as cell-based. How it is done: (§1) We tested the relationship between AzPs dose and the viability of human ovarian cancer cell lines and the ID8 murine ovarian cancer cell line.
(§2) Clonogenic assay: 300 suspended OC cells were plated in each well of 12 well plates (Corning-Costar, #3598) and incubated for 24 h for attachment. The media was replaced after 24 h with media containing a respective concentration of the test compound and incubated for 5-8 days until visible colonies appeared in vehicle-treated wells. Cells were then washed and fixed with 2% paraformaldehyde, followed by washing and staining with 0.5% Crystal violet for 1 h. Cells were de-stained using DI water and allowed to dry. Colonies were counted under the microscope at 100× magnification.
(§3) FIG. 1A) Lead optimization of SU093 to obtain SU056. FIG. 1B) IC50 values of SU093 and SU056 on various ovarian cancer cells. Clonogenic survival of OC cells treated with SU093 or SU056. […] FIG. 1C) Representative colony formation from respective wells. FIG. 1D) Number of colonies formed after SU093 and SU056 treatment. […] FIG. 1F) Cell cycle distribution of propidium iodide (PI)-stained OVCAR8, SKOV3, and ID8 cells. […] FIG. 1G) Effects of SU093 and SU056 on apoptotic cell death analyzed by Annexin-FITC staining. […] FIG. 1H) Cell migration assay.

In a further data set the test system is SKOV-3. As to the kind of experiment: Clonogenic assay. It is filed as cell-based, human. The settings on record: 0.5 & 1 μM. How it is done:
as §1, §2, §3

The test system of data set [1] is OVCAR8, SKOV3, and ID8 cells. In words: Cell cycle analysis (propidium iodide, flow cytometry). It counts as cell-based. The settings on record: 12 h treatment; PI-stained OVCAR8, SKOV3, ID8. How it is done:
(§4) To determine whether proliferation inhibition was the dominant factor driving the reduction in OC viability seen with AzP treatment, we used propidium iodide and annexin-FITC stains with flow cytometry to measure the distribution of cell cycle phases after treatment. […] Furthermore, in the Boyden chamber assay for cell migration, SU093 inhibited cell migration by 40-46% (1 μM, P<0.05) in different OC cell lines.
Cell cycle analysis: 30,000 OC cells were plated in each well of 12 well plates and incubated for 24 h. […] Both live and dead cells were collected via trypsinization and cell pellets were fixed with 70% ethanol. Fixed cells were stained using propidium iodide (PI) cocktail (80 μg/mL RNase A and 50 μg/mL PI in saponin-EDTA solution) and incubated at 4° C. overnight. Each sample was analyzed using a Guava® easyCyte™ Flow Cytometer (Millipore, Burlington, MA). FlowJo software calculated the % cells in each cell cycle phase.
as §3

The test system of a further data set is ovarian cancer cells. As to the kind of experiment: Apoptotic cell death assay (Annexin-FITC). The settings on record: 24 h treatment; Annexin-FITC staining. It is filed as cell-based. Here is the method:
as §4
Apoptotic cell death assay: Cells were plated and treated as described in cell cycle analysis assay above. Treated cells were incubated for 24 h and both live and dead cells were collected. Cells were stained with Annexin V and PI using FITC Annexin V apoptosis detection kit (BD Pharmingen, San Jose, CA) by following the manufacturer's protocol. Guava® easyCyte™ Flow Cytometer was used to analyze the stained cells.
as §3

A further data set has as its system OC cell lines. As to the kind of experiment: Cell migration assay (Boyden chamber). The settings on record: different OC cell lines, P<0.05. It is filed as cell-based. Here is the method: as §4
Cell migration assay: 1×10^5 cells were plated in 60 mm cell culture dishes (Corning-Falcon, #353002) and incubated for 24 h. […] Cells were trypsinized and collected in a conical tube for each plate. Pellets of cells were resuspended, and live cells were counted using a hemocytometer and trypan blue staining. 40,000 live cells were then plated in the upper chamber of 8-micron transwell (Corning-Falcon, #353097) with 0.2% FBS media. The lower chamber contained 10% FBS complete media. […] Each transwell was washed, swiped for non-migrated cells and fixed using 75% ethanol. Fixed transwells were stained with 0.5% crystal violet for 1 h. De-stained transwell membranes were cut and mounted on a slide using DPX mounting media. Migrated cells were counted under the microscope at 100× magnification.
FIG. 1A) Lead optimization of SU093 to obtain SU056. […] FIG. 1G) Effects of SU093 and SU056 on apoptotic cell death analyzed by Annexin-FITC staining. […]

The test system of the next data set is ID-8 tumor xenograft. In words: ID8 syngeneic ovarian tumor model, tumor growth and lung metastasis. It is filed as in vivo, C57BL/6 mice. How it is done:
(§5) These promising results led us to test SU093 and SU056 in vivo. C57BL/6 mice were implanted with 2×10^6 firefly luciferase (luc+)-expressing ID-8 syngeneic ovarian cancer cells subcutaneously. Once the tumors reached 100 mm^3 in size, we began daily intraperitoneal treatment with SU093 and SU056 at 20 mg/kg (vehicle control 30% PEG-300 in saline). Tumor growth was monitored via bioluminescence imaging (IVIS).
Due to prior observation of a significant reduction in the migratory ability of OC cells treated with the two drugs (FIG. 1H), we also measured the effect of drug treatment on ovarian cancer metastases. At the end of above experiment, lungs were fixed and metastatic foci were counted under the dissecting microscope followed by H&E staining.
(§6) In vivo xenograft model and drug efficacy study: All animal experiments were reviewed and approved by the Animal Care and Use Committee of Stanford University, CA, USA. Luciferase tagged ID8 (2×10^6) or OVCAR8 (5×10^6) cells were implanted into the right flank of 6-7-week-old female C57BL/6 mice and NOD/SCID mice, respectively. Respective treatment began after tumors grew to 100-200 mm^3 diameters. The ID8 syngeneic mice model was treated with a vehicle (30% PEG-300 in saline), 20 mg/kg SU093, and 20 mg/kg SU056 intraperitoneally (IP) daily for 42 days. At the end of treatment, blood was collected from each mouse and analyzed for liver toxicity parameters, including Alanine Aminotransferase (ALT), Aspartate Aminotransferase (AST), and Alkaline Phosphatase (ALKP). OVCAR8 xenograft mice model was treated with vehicle (30% PEG-300 in saline), 5 mg/kg paclitaxel (once a week), 10 mg/kg SU056 (daily), a combination of paclitaxel (5 mg/kg, once a week) and SU056 (10 mg/kg, daily) for 4 weeks. Mice from both studies were euthanized, the tumor and different organs were collected and fixed in neutral buffered formalin and further processed for immunohistochemical analysis.
FIGS. 2A-2F. SU093 and SU056 inhibit mice ovarian ID-8 tumor xenograft growth in C57BL/6 mice. Mice were subcutaneously injected with ID-8 cells mixed with Matrigel in 1:1 ratio and the drug treatment started when tumors reached 100 mm^3. […] FIG. 2B) Tumor volume/mouse as a function of time. […] FIG. 2C) Tumor weight/mouse at the end of the study. […] FIG. 2D) Liver toxicity parameters at the end of 42 days showing no significant difference between control, SU093, and SU056. FIGS. 2E-2F) Lung metastasis assay. FIG. 2E) H&E staining of the lung (red arrow indicates the metastasis from ID8 xenograft). Scale bar, 250 μm. FIG. 2F) No. of lung metastatic nodules.

Data set [2] can be described thus: Liver toxicity parameters (ALT, AST, ALKP) in ID8 study. It counts as in vivo, C57BL/6 mice. The settings on record: 20 mg/kg daily IP, 42 days. Here is the method:
as §5
as §6, with “OVCAR8 xenograft mice model was treated with vehicle (30% PEG-300 in saline), 5 mg/kg paclitaxel (once a week), 10 mg/kg SU056 (daily), a combination of paclitaxel (5 mg/kg, once a week) and SU056 (10 mg/kg, daily) for 4 weeks. Mice from both studies were euthanized, the tumor and different organs were collected and fixed in neutral buffered formalin and further processed for immunohistochemical analysis.” left out

The test system of the next data set is YB-1 and MDR1. In words: Immunoblotting of YB-1 and MDR1 in OVCAR8 cells. It is filed as cell-based, human. The settings on record: paclitaxel 0.5 nM, SU056 0.5 μM, 12 h. (In western blotting, separated proteins are transferred to a membrane and probed.)
The subject of the next data set is OVCAR8 OC tumors. In words: OVCAR8 xenograft combination study. It is filed as in vivo, NOD-SCID mice. The settings on record: SU056 10 mg/kg daily, paclitaxel 5 mg/kg weekly, intraperitoneal, 28 days. Here is the method: In a pharmacokinetics study in vivo, injection of 20 mg/kg SU056 led to a maximum serum concentration of 28.19 μg/mL with a T1/2 of ˜45 min. We then tested the synergism of paclitaxel and SU056 co-treatment in vivo in NOD-SCID mice implanted with OVCAR8 OC tumors as described above. Mice were given daily treatment of SU056 (10 mg/kg) and weekly treatment of paclitaxel (5 mg/kg) were administered intraperitoneally. […] This likely resulted from decreased paclitaxel efflux from OVCAR8 cells in the presence of SU056.
as §6, with “OVCAR8 xenograft mice model was treated with vehicle (30% PEG-300 in saline), 5 mg/kg paclitaxel (once a week), 10 mg/kg SU056 (daily), a combination of paclitaxel (5 mg/kg, once a week) and SU056 (10 mg/kg, daily) for 4 weeks. Mice from both studies were euthanized, the tumor and different organs were collected and fixed in neutral buffered formalin and further processed for immunohistochemical analysis.” left out

Procedure for YB-1 and MDR1: Immunoblotting: Once 70% confluency of OC cells plated in 100 mm cell culture was obtained, dishes were treated with a respective concentration of SU056 for a respective time. At the end of treatment, cells were collected and lysed using M-PER™ lysis solution (Thermo Scientific, #78503), supplemented with Halt protease and phosphatase inhibitor cocktail (Thermo Scientific, #78440). An equal amount (40-60 μg) of proteins was resolved using 8%/10%/12% SDS-PAGE gel electrophoresis. Proteins were then transferred onto a PVDF membrane (Bio-Rad, #162-01277). Blocked membranes were incubated with respective primary antibody solution prepared in 5% nonfat milk TPBS at 4° C. overnight with gentle rocking. Primary antibody-probed membranes were washed and probed with respective HRP-conjugated secondary antibody. Proteins were detected using Immobilon® Crescendo Western HRP Substrate (Millipore, Germany) and visualized on an IVIS Lumina Imaging System (Perkin Elmer, Waltham, MA). […]

Broadly, the inhibition is the drop in the measured response relative to a control, in per cent. A low value points to little suppression. As for `COc1ccc2c(c1)N(CCO)C1=C(C(=O)OC1)C2c1cccc(F)c1` (stereo not shown) [SU093, 9-(3-fluorophenyl)-4-(2-hydroxyethyl)-6-methoxy-4,9-dihydrofuro[3,4-b]quinolin-1(3H)-one, reference compound], the OC colony formation result in the data set with OVCAR-8 and ID8 cells was “decreased OC colony formation in a dose-dependent and significant manner”. For the same compound, the “colony formation, effect on SKOV-3” value in the data set on SKOV-3 is “moderately affect”. In addition, in [1], the cell cycle distribution entry is on record as “G1 phase arrest”. Moreover, the apoptotic cell death entry with ovarian cancer cells was “induce apoptotic cell death”. In the data set with OC cell lines, this compound displayed an inhibition at 1 µM of 40 to 46%. In the data set with ID-8 tumor xenograft (20 mg/kg daily IP, at 42 days), the “reduction in tumor weight” value stood at 1.5 fold. The “tumor progression vs vehicle control” value in the data set with ID-8 tumor xenograft (20 mg/kg daily intraperitoneal, bioluminescence imaging) is recorded as “significantly delay the tumor progression”. For the same compound, the “impact on blood chemistry indicators (AST, ALT, alkaline phosphatase)” value in data set [2] is “no significant impact”.
Regarding `CC(=O)O[C@H]1C(=O)[C@@]2(C)[C@H]([C@H](OC(=O)c3ccccc3)[C@]3(O)C[C@H](OC(=O)[C@H](O)[C@@H](NC(=O)c4ccccc4)c4ccccc4)C(C)=C1C3(C)C)[C@]1(OC(C)=O)CO[C@@H]1C[C@@H]2O` [paclitaxel, reference compound], the “expression of YB-1 and MDR1 (Western blot)” value with YB-1 and MDR1 was “upregulate the expression of YB-1 and MDR1”. Besides, in the data set on OVCAR8 OC tumors, the OC tumor growth entry is recorded as “significant reduction in OC tumor growth”.

The values above are taken from patent publication US20240016784A1, “Y BOX BINDING PROTEIN 1 INHIBITORS” (Oregon Health & Science University, priority 2020, published 2024).
